The target in one assay is T1, CCR4 (Homo sapiens, UniProt P51679).
T1 construct: expressed in transfected cells; host or cells: CHO cell membranes
T1 sequence (P51679 1-360): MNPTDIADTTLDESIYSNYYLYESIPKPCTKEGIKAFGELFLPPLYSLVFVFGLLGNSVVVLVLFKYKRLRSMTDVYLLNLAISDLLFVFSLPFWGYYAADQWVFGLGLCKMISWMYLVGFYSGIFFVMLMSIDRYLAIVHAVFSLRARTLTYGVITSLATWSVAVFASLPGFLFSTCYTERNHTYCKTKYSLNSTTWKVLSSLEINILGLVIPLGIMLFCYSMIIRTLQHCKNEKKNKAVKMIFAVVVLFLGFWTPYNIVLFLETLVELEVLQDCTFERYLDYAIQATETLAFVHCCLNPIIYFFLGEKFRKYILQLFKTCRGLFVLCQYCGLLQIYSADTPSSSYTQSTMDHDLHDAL
The experiment in a line: [35S]-GTPγS SPA binding assay for CCR4 antagonist activity. The following applies: CCR4 expressing CHO membranes; human MDC at EC80; [35S]-GTPγS competition. In kind it is biochemical. The procedure:
[35S]-GTPγS SPA Binding Assays for CCR4 Antagonist Activity
Antagonist potency was determined by a radioligand [35S]-GTPγS competition assay. Briefly, CCR4 expressing CHO membranes were homogenised by passing through a 23G needle. These membranes were then adhered to WGA-coated Leadseeker SPA beads in assay buffer (20 mM HEPES, 10 mM MgCl2, 100 mM NaCl, 0.05% BSA, 40 ug/ml Saponin and pH adjusted to 7.4 using KOH 5M) to generate a 3 μg/well final assay concentration (FAC) membrane and 250 μg/well FAC bead, solution.
The bead/membrane/[35S]-GTPγS/Agonist suspension was dispensed into white Greiner polypropylene 384-well plates (45 μl/well), containing 0.5 μl of compound. […] Plates were then read on a Viewlux instrument and luminescence was then plotted as a percentage of the maximum inhibitional response elicited by an IC100 of a standard antagonist.

Another assay deals with CD4+ CCR4+ T cells. The experiment in a line: Chemokine stimulated increases in cellular F-actin content. The format is cell-based. The following applies: Homo sapiens, T-cell, 0.5 h; PBMC from normal volunteers; antagonist 30 min at 37° C. before agonist for 15 sec; F-actin content by flow cytometry; read-out: pA2 (converted). Summed up:
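Human PBMC from citrated volunteer blood, stained for CD4 and CCR4, were pre-incubated with antagonist or vehicle (0.1% DMSO) for 30 min at 37 °C, then stimulated with agonist for 15 s and formaldehyde-fixed. F-actin was stained with phalloidin and read by flow cytometry as CD4+CCR4+ MFI relative to CD4+CCR4− cells.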

Where a name gives a salt, the structure may show the parent alone.

On CCR4, `COc1cccc2c1c(NS(=O)(=O)c1ccc(Cl)s1)nn2Cc1cccc(CNC(=O)[C@H](N)C(C)C)c1` [Example 48, N^1-[(3-{[3-{[(5-Chloro-2-thienyl)sulfonyl]amino}-4-(methyloxy)-1H-indazol-1-yl]methyl}phenyl)methyl]-D-valinamide] showed a concentration for half-maximal inhibition (IC50) of 0.00398 to 0.0158 µM. Moreover, in the assay with CD4+ CCR4+ T cells, the Kb is no more than 0.126 µM.
As for `NC(=O)c1cccc(Cn2nc(NS(=O)(=O)c3ccc(Cl)s3)c3c(O)cccc32)c1` [Example 70, 3-[(3-{[(5-Chloro-2-thienyl)sulfonyl]amino}-4-hydroxy-1H-indazol-1-yl)methyl]benzamide], the IC50 on CCR4 was 0.00398 to 0.0158 µM. Moreover, the Kb with CD4+ CCR4+ T cells was no more than 0.126 µM.
Molecule `COc1cccc2c1c(NS(=O)(=O)c1ccc(Cl)s1)nn2Cc1cccc(CNC(=O)C2CCOCC2)c1` [Example 43, N-[(3-{[3-{[(5-chloro-2-thienyl)sulfonyl]amino}-4-(methyloxy)-1H-indazol-1-yl]methyl}phenyl)methyl]tetrahydro-2H-pyran-4-carboxamide] showed an IC50 on CCR4 of 0.00398 to 0.0158 µM. Besides, in the assay on CD4+ CCR4+ T cells, the Kb is no more than 0.126 µM.
On CCR4, `COc1cccc2c1c(NS(=O)(=O)c1ccc(Cl)s1)nn2Cc1cccc(CNC(=O)C(C)(C)C)c1` [Example 4, N-[(3-{[3-{[(5-chloro-2-thienyl)sulfonyl]amino}-4-(methyloxy)-1H-indazol-1-yl]methyl}phenyl)methyl]-2,2-dimethylpropanamide] had an IC50 of 0.00398 to 0.0158 µM. Besides, in the assay on CD4+ CCR4+ T cells, the Kb is no more than 0.126 µM.
The matching figures for `COc1cccc2c1c(NS(=O)(=O)c1ccc(Cl)s1)nn2Cc1cccc(CNC(=O)c2cn[nH]c2)c1` [Example 33, N-[(3-{[3-{[(5-Chloro-2-thienyl)sulfonyl]amino}-4-(methyloxy)-1H-indazol-1-yl]methyl}phenyl)methyl]-1H-pyrazole-4-carboxamide]: 0.00398 to 0.0158 µM and no more than 0.126 µM.
At CCR4, `O=C(NCc1cccc(Cn2nc(NS(=O)(=O)c3ccc(Cl)s3)c3c(O)cccc32)c1)C1COCCN1` (stereo not drawn) [Example 73, N-({3-[(3-{[(5-Chloro-2-thienyl)sulfonyl]amino}-4-hydroxy-1H-indazol-1-yl)methyl]phenyl}methyl)-3-morpholinecarboxamide formate salt] had a half-maximal inhibitory concentration (IC50) of 0.00398 to 0.0158 µM. The Kb with CD4+ CCR4+ T cells was no more than 0.126 µM.
The matching figures for `COc1cccc2c1c(NS(=O)(=O)c1ccc(Cl)s1)nn2Cc1cccc(CNC(=O)[C@@H](N)Cc2cnc[nH]2)c1` [Example 44, N-[(3-{[3-{[(5-Chloro-2-thienyl)sulfonyl]amino}-4-(methyloxy)-1H-indazol-1-yl]methyl}phenyl)methyl]-L-histidinamide]: 0.00398 to 0.0158 µM and no more than 0.126 µM.
The matching figures for `COc1cccc2c1c(NS(=O)(=O)c1ccc(Cl)s1)nn2Cc1cccc(CNC(=O)CC(N)=O)c1` [Example 21, N-[(3-{[3-{[(5-chloro-2-thienyl)sulfonyl]amino}-4-(methyloxy)-1H-indazol-1-yl]methyl}phenyl)methyl]propanediamide]: 0.00398 to 0.0158 µM and no more than 0.126 µM.
Consider `CN[C@H](C)C(=O)NCc1cccc(Cn2nc(NS(=O)(=O)c3ccc(Cl)s3)c3c(OC)cccc32)c1` [Example 10, N^1-[(3-{[3-{[(5-chloro-2-thienyl)sulfonyl]amino}-4-(methyloxy)-1H-indazol-1-yl]methyl}phenyl)methyl]-N^2-methyl-D-alaninamide hydrochloride], for which the concentration for half-maximal inhibition (IC50) on CCR4 was 0.00398 to 0.0158 µM. For the same molecule, the Kb in the assay with CD4+ CCR4+ T cells is no more than 0.126 µM.

For the origin of these results see patent US8304446B2, “Compounds” (Glaxo Group Limited, priority 2009, dated 2012).
